pIC50: −log10 of the molar value. Like-named read-outs stand apart in the source and are kept apart here.
Target: recombinant human SAE enzyme (Homo sapiens (Human), UniProt Q9UBT2)
Test: SAE HTRF enzyme assay
Type: biochemical
Settings: for pIC50: class symbols A/B/C; for IC50: SAE inhibition, class symbols, legend in nM; for inhibition at 0.111 µM: read-out: Percent Inhibition
Method in brief: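 Human SAE (0.11 nM) with 0.5 μM ATP, 0.125 μM Sumo-Flag and 0.01 μM Ubc9-GST in HEPES pH 7.5, 5 mM MgCl2, 250 μM GSH; 105 min at 24 °C. Stopped with EDTA; HTRF read after 2 h with Eu-anti-Flag and APC-anti-GST. Percent inhibition or IC50 reported.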

[1] = SAE inhibition at compound concentration 0.111 μM

Chain of recombinant human SAE enzyme (Q9UBT2 whole entry): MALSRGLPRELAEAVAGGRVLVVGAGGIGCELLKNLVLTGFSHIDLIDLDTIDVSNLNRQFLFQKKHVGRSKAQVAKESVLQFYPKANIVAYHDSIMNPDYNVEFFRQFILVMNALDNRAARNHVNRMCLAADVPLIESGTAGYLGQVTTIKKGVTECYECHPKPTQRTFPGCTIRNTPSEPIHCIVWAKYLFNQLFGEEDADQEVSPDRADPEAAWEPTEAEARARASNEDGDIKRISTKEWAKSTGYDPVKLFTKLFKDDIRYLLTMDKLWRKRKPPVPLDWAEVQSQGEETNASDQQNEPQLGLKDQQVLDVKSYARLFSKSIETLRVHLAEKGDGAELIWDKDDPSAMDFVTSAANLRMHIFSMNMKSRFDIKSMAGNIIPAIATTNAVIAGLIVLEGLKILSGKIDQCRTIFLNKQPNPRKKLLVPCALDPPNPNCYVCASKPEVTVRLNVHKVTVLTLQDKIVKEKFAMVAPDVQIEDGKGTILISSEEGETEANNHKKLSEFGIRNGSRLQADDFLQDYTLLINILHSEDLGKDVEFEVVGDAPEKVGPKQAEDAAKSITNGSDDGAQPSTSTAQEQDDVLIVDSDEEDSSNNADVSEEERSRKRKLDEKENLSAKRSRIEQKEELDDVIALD
Chain of recombinant human SAE enzyme (Q9UBE0 whole entry partner): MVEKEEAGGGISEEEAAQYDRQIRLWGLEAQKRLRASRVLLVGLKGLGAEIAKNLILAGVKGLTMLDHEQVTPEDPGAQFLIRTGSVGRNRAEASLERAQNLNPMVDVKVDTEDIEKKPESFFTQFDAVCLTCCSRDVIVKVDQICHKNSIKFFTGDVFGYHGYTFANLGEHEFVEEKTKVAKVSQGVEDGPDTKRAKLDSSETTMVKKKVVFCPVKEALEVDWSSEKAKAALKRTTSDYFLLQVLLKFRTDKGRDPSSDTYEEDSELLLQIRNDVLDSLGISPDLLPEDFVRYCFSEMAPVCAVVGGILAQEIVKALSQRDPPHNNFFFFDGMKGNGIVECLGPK

Compound	Percent Inhibition (Concentration 0.111 μM)	pIC50	Percent Inhibition [1]	IC50	other results
Cc1sc(C(=O)c2cncnc2N[C@@H]2C[C@H](COS(N)(=O)=O)[C@@H](O)C2)cc1[C@@]1(c2ccccc2)CCCO1 (mixture of isomers) [I-121, [(1R,2S,4R)-2-hydroxy-4-{[5-({5-methyl-4-[(2S)-2-phenyltetrahydrofuran-2-yl]-2-thienyl}carbonyl)pyrimidin-4-yl]amino}cyclopentyl]methyl sulfamate and [(1R,2S,4R)-2-hydroxy-4-{[5-({5-methyl-4-[(2R)-2-phenyltetrahydrofuran-2-yl]-2-thienyl}carbonyl)pyrimidin-4-yl]amino}cyclopentyl]methyl sulfamate]	98	> 8.00	–	–	–
CC(N)(c1cccc(Cl)c1)c1csc(C(=O)c2cncnc2N[C@@H]2C[C@H](COS(N)(=O)=O)[C@@H](O)[C@H]2O)c1 (single isomer, unassigned) [I-8a, [(1R,2R,3S,4R)-4-{[5-({4-[(1S)-1-amino-1-(3-chlorophenyl)ethyl]-2-thienyl}carbonyl)pyrimidin-4-yl]amino}-2,3-dihydroxycyclopentyl]methyl sulfamate or [(1R,2R,3S,4R)-4-{[5-({4-[(1R)-1-amino-1-(3-chlorophenyl)ethyl]-2-thienyl}carbonyl)pyrimidin-4-yl]amino}-2,3-dihydroxycyclopentyl]methyl sulfamate]	96	> 8.00	–	–	–
Cc1nc2n(c1C)CCO[C@@H]2c1cc(C(=O)c2cncnc2N[C@@H]2C[C@H](COS(N)(=O)=O)[C@@H](O)C2)sc1C (single isomer, unassigned) [I-356a, [(1R,2S,4R)-4-{[5-({4-[(8R)-2,3-dimethyl-5,6-dihydro-8H-imidazo[2,1-c][1,4]oxazin-8-yl]-5-methyl-2-thienyl}carbonyl)pyrimidin-4-yl]amino}-2-hydroxycyclopentyl]methyl sulfamate or [(1R,2S,4R)-4-{[5-({4-[(8S)-2,3-dimethyl-5,6-dihydro-8H-imidazo[2,1-c][1,4]oxazin-8-yl]-5-methyl-2-thienyl}carbonyl)pyrimidin-4-yl]amino}-2-hydroxycyclopentyl]methyl sulfamate]	–	–	52%	10 to 100 nM	–
Cc1sc(C(=O)c2cncnc2N[C@@H]2C[C@H](COS(N)(=O)=O)[C@@H](O)[C@H]2O)nc1Cc1cccc(Br)c1 [I-354, {(1R,2R,3S,4R)-4-[(5-{[4-(3-bromobenzyl)-5-methyl-1,3-thiazol-2-yl]carbonyl}pyrimidin-4-yl)amino]-2,3-dihydroxycyclopentyl}methyl sulfamate]	–	–	–	< 10 nM	inhibition at 0.111 µM [1]: 100%
NS(=O)(=O)OC[C@H]1C[C@@H](Nc2ncncc2C(=O)c2cc(Cn3cnc4ccccc43)cs2)C[C@@H]1O [I-192, {(1R,2S,4R)-4-[(5-{[4-(1H-benzimidazol-1-ylmethyl)-2-thienyl]carbonyl}pyrimidin-4-yl)amino]-2-hydroxycyclopentyl}methyl sulfamate]	–	7.00 to 8.00	–	–	inhibition at 0.111 µM (Concentration 0.111 μM): 66%
NC(c1cccc(Br)n1)c1cc(C(=O)c2cncnc2NC2CC(O)C(COS(N)(=O)=O)C2)sc1Cl (mixture of isomers) [I-18, [(1R,2S,4R)-4-{[5-({4-[(R)-amino(6-bromopyridin-2-yl)methyl]-5-chloro-2-thienyl}carbonyl)pyrimidin-4-yl]amino}-2-hydroxycyclopentyl]methyl sulfamate and [(1R,2S,4R)-4-{[5-({4-[(S)-amino(6-bromopyridin-2-yl)methyl]-5-chloro-2-thienyl}carbonyl)pyrimidin-4-yl]amino}-2-hydroxycyclopentyl]methyl sulfamate]	99	> 8.00	–	–	–
Cc1cc(Cc2cccc(Cl)c2)sc1C(=O)c1cncnc1N[C@@H]1C[C@H](COS(N)(=O)=O)[C@@H](O)C1 [I-233, {(1R,2S,4R)-4-[(5-{[5-(3-Chlorobenzyl)-3-methyl-2-thienyl]carbonyl}pyrimidin-4-yl)amino]-2-hydroxycyclopentyl}methyl sulfamate]	–	6.00 to 7.00	–	–	inhibition at 0.111 µM (Concentration 0.111 μM): 22%
Cc1sc(C(=O)c2cncnc2N[C@@H]2C[C@H](COS(N)(=O)=O)[C@@H](O)C2)cc1[C@@H]1OCOc2ccccc21 (single isomer, unassigned) [I-280a, [(1R,2S,4R)-4-{[5-({4-[(4R)-4H-1,3-benzodioxin-4-yl]-5-methyl-2-thienyl}carbonyl)pyrimidin-4-yl]amino}-2-hydroxycyclopentyl]methyl sulfamate or [(1R,2S,4R)-4-{[5-({4-[(4S)-4H-1,3-benzodioxin-4-yl]-5-methyl-2-thienyl}carbonyl)pyrimidin-4-yl]amino}-2-hydroxycyclopentyl]methyl sulfamate]	–	–	75%	10 to 100 nM	–
NS(=O)(=O)OC[C@H]1C[C@@H](Nc2ncncc2C(=O)c2cc(CO)c(Cc3cccc(Cl)c3)s2)C[C@@H]1O [I-142, {(1R,2S,4R)-4-[(5-{[5-(3-chlorobenzyl)-4-(hydroxymethyl)-2-thienyl]carbonyl}pyrimidin-4-yl)amino]-2-hydroxycyclopentyl}methyl sulfamate]	–	> 8.00	–	–	inhibition at 0.111 µM (Concentration 0.111 μM): 94%
CN1CCc2ccc(Cl)cc2[C@@H]1c1cc(C(=O)c2cncnc2N[C@@H]2C[C@H](COS(N)(=O)=O)[C@@H](O)C2)sc1Cl (single isomer, unassigned) [I-311b, [(1R,2S,4R)-4-{[5-({5-chloro-4-[(1R)-7-chloro-2-methyl-1,2,3,4-tetrahydroisoquinolin-1-yl]-2-thienyl}carbonyl)pyrimidin-4-yl]amino}-2-hydroxycyclopentyl]methyl sulfamate or [(1R,2S,4R)-4-{[5-({5-chloro-4-[(1S)-7-chloro-2-methyl-1,2,3,4-tetrahydroisoquinolin-1-yl]-2-thienyl}carbonyl)pyrimidin-4-yl]amino}-2-hydroxycyclopentyl]methyl sulfamate]	–	–	96%	< 10 nM	–
C[C@@]1(c2csc(C(=O)c3cncnc3N[C@@H]3C[C@H](COS(N)(=O)=O)[C@@H](O)C3)c2)NCCc2ccccc21.C[C@]1(c2csc(C(=O)c3cncnc3N[C@@H]3C[C@H](COS(N)(=O)=O)[C@@H](O)C3)c2)NCCc2ccccc21 (mixture of isomers) [I-318, [(1R,2S,4R)-2-hydroxy-4-{[5-({4-[(1R)-1-methyl-1,2,3,4-tetrahydroisoquinolin-1-yl]-2-thienyl}carbonyl)pyrimidin-4-yl]amino}cyclopentyl]methyl sulfamate and [(1R,2S,4R)-2-hydroxy-4-{[5-({4-[(1S)-1-methyl-1,2,3,4-tetrahydroisoquinolin-1-yl]-2-thienyl}carbonyl)pyrimidin-4-yl]amino}cyclopentyl]methyl sulfamate]	–	–	95%	< 10 nM	–
C[C@](O)(c1csc(C(=O)c2cncnc2N[C@@H]2C[C@H](COS(N)(=O)=O)[C@@H](O)[C@H]2O)c1)c1cccc(Br)n1 (mixture of isomers) [I-1, [(1R,2R,3S,4R)-4-{[5-({4-[(1S)-1-(6-bromopyridin-2-yl)-1-hydroxyethyl]-2-thienyl}carbonyl)pyrimidin-4-yl]amino}-2,3-dihydroxycyclopentyl]methyl sulfamate and [(1R,2R,3S,4R)-4-({[5-({4-[(1R)-1-(6-bromopyridin-2-yl)-1-hydroxyethyl]-2-thienyl}carbonyl)pyrimidin-4-yl]amino}-2,3-dihydroxycyclopentyl]methyl sulfamate]	99	> 8.00	–	–	–
Cc1sc(C(=O)c2cncnc2N[C@@H]2C[C@H](COS(N)(=O)=O)[C@@H](O)C2)cc1[C@@H]1OCCn2c1nc1ccccc12 (mixture of isomers) [I-344, [(1R,2S,4R)-4-{[5-({4-[(1S)-3,4-dihydro-1H-[1,4]oxazino[4,3-a]benzimidazol-1-yl]-5-methyl-2-thienyl}carbonyl)pyrimidin-4-yl]amino}-2-hydroxycyclopentyl]methyl sulfamate and [(1R,2S,4R)-4-{[5-({4-[(1R)-3,4-dihydro-1H-[1,4]oxazino[4,3-a]benzimidazol-1-yl]-5-methyl-2-thienyl}carbonyl)pyrimidin-4-yl]amino}-2-hydroxycyclopentyl]methyl sulfamate]	–	–	99%	< 10 nM	–
NS(=O)(=O)OC[C@H]1C[C@@H](Nc2ncncc2C(=O)c2cc(Cc3cccc(Cl)c3)co2)C[C@@H]1O [I-79, [(1R,2S,4R)-4-({5-[4-(3-chlorobenzyl)-2-furoyl]pyrimidin-4-yl}amino)-2-hydroxycyclopentyl]methyl sulfamate]	–	–	–	–	inhibition at 0.111 µM (Concentration 0.111 μM): 97%
Cc1sc(C(=O)c2cncnc2N[C@@H]2C[C@H](COS(N)(=O)=O)[C@@H](O)C2)cc1[C@@H]1OCCc2ccc(C3CC3)cc21 (single isomer, unassigned) [I-277b, [(1R,2S,4R)-4-{[5-({4-[(1R)-7-cyclopropyl-3,4-dihydro-1H-isochromen-1-yl]-5-methyl-2-thienyl}carbonyl)pyrimidin-4-yl]amino}-2-hydroxycyclopentyl]methyl sulfamate or [(1R,2S,4R)-4-{[5-({4-[(1S)-7-cyclopropyl-3,4-dihydro-1H-isochromen-1-yl]-5-methyl-2-thienyl}carbonyl)pyrimidin-4-yl]amino}-2-hydroxycyclopentyl]methyl sulfamate]	81	7.00 to 8.00	–	–	–
Cc1sc(C(=O)c2cncnc2N[C@@H]2C[C@H](COS(N)(=O)=O)[C@@H](O)C2)cc1C1=NCCc2ccc(Cl)cc21 [I-360, ((1R,2S,4R)-4-{(5-(4-(7-chloro-3,4-dihydroisoquinolin-1-yl)-5-methylthiophene-2-carbonyl)pyrimidin-4-yl)amino)-2-hydroxycyclopentyl)methyl sulfamate]	–	–	–	< 10 nM	inhibition at 0.111 µM [1]: 95%
